According to patent publication US20230413818A1, “FEED AND METHODS FOR CONTROLLING TICK INFESTATIONS IN A MAMMAL” (In the Bowl Animal Health, Inc., priority 2021, published 2023):

Legend:
Rhipicephalus sanguineus = assay: Efficacy of spinosyn administered per os to dogs for treatment and control of Rhipicephalus sanguineus (tick comb counts); type: in vivo; conditions: oral daily dose increased from 2.5 to 5.0 mg/kg/day around day 30, days 37-50, FIG. 1
From the text: Efficacy of Spinosyn Administered per os, i.e. by Mouth, to Dogs for the Treatment and Control of Rhipicephalus sanguineus.
(§1) Methods: A pool of 40 dogs are to be screened before inclusion in this example by preliminarily infesting them with ˜100 unfed adult Ctenocephalidesfelis in order to produce a pool of dogs that can suitably sustain a reliable infestation rate of approximately 50% of live fleas over a 48-hour period. The dogs with the highest live flea counts are to be randomly allocated to 2 treatment groups (6 dogs per group) based on their pre-treatment flea counts from experimental infestations. The first treatment group is to be the control group and the second treatment group to be the test group.
(§2) The dogs are to be housed individually during the study period and are to be fed a commercial dry dog food ration with ad libitum access to water.
(§3) Each dog in the test group is to receive by mouth a liquid formulation of spinosyn preferably spinosad. The dosage of 2.5 mg/kg of the dog's weight is to be administered to the dogs on each of days 0-29 and the dosage of 5 mg/kg of the dog's weight is to be administered on days 30-50.
Dogs in the control group are not to receive spinosyn or any other tick control treatment. […]
Results: Referring now to FIG. 1. […] Percent Efficacy is determined according to the formula [AM ticks CONTROL−AM ticks TREATED]/AM ticks Control. […]

[1] = Average plasma concentration of spinosad in dogs after oral dosing; type: in vivo
From the text: as §1, §2, §3
Dogs in the control group are not to receive spinosyn or any other tick control treatment. Each dog in the test group is to be offered its daily ration (dry food) and the individual doses of liquid formulation are to be administered after the individual dog has eaten at least 25% of its total daily ration. After receiving the dose of spinosyn the dogs are to be allowed to continue eating. This mimics incorporating the spinosyn in feed. Each dog in the test group and the control group is to be experimentally infested with 50 unfed adult ticks (ca. 50% male/50% female) on test days 12, 19, 28, 35, 42, 49 and 56. Comb counts for attached live and moribund adult ticks are to be conducted on days 14, 21, 30, 37, 44, 51 and 58. Note that the dosage is to be increased at day 30 and the final dose is to be given on day 50.
Using the same study method as described above, blood is to be drawn at 72, 120, 168, 336, 504, 720 and 888 hours after the initial dose of spinosyn is administered. The average concentration of spinosyn in the blood for different dosage levels can then be determined.
Referring now to TABLE 1 and FIG. 2. Sample results are shown for the average plasma concentration of spinosad in a canine's blood (ng/mL) versus time in hours for different dosage levels of spinosad. By way of comparison, the average plasma concentration of spinosyn for a single-dose administration to be given monthly (squares) is shown with the average plasma concentration of spinosyn for a substantially daily dose of 2.5 mg/kg/day or 5.0 mg/kg/day (circles). The daily dose is increased from 2.5 mg/kg/day to 5.0 mg/kg/day at about hour 700 (around day 30).

spinosad
Percent Efficacy (reduction in attached live and moribund adult tick counts vs control) (Rhipicephalus sanguineus): increase in efficacy is clear | Average Plasma Concentration ([1]; oral daily 2.5-5.0 mg/kg/day spinosad (2.5 mg/kg/day phase), 72 hours): 221.50 ng/mL | Average Plasma Concentration ([1]; oral daily 2.5-5.0 mg/kg/day spinosad (2.5 mg/kg/day phase), 120 hours): 327.07 ng/mL | Average Plasma Concentration ([1]; oral daily 2.5-5.0 mg/kg/day spinosad (2.5 mg/kg/day phase), 168 hours): 455.78 ng/mL | Average Plasma Concentration ([1]; oral daily 2.5-5.0 mg/kg/day spinosad (2.5 mg/kg/day phase), 336 hours): 566.25 ng/mL | Average Plasma Concentration ([1]; oral daily 2.5-5.0 mg/kg/day spinosad (2.5 mg/kg/day phase), 504 hours): 668.77 ng/mL | Average Plasma Concentration ([1]; oral daily 2.5-5.0 mg/kg/day spinosad (5.0 mg/kg/day phase), 888 hours): 635.72 ng/mL | Average Plasma Concentration ([1]; oral daily 2.5-5.0 mg/kg/day spinosad (5.0 mg/kg/day phase), 1056 hours): 967.33 ng/mL | Average Plasma Concentration ([1]; oral daily 2.5-5.0 mg/kg/day spinosad (after final dose on day 50), 1392 hours): 761.45 ng/mL | Average Plasma Concentration ([1]; oral daily 2.5-5.0 mg/kg/day spinosad (dose raised to 5.0 mg/kg/day at about hour 700), 720 hours): 533.12 ng/mL
